Laboratory results from publication PMC6362118, “Pharmacophore-guided discovery of CDC25 inhibitors causing cell cycle arrest and tumor regression” (Scientific Reports, 2019).

Legend:
HeLa cells [1] = assay: Flow cytometric analysis of cell cycle progression (DNA content) in HeLa cells; type: cell-based; settings: for effect on the G1/S transition: HeLa synchronized at G2/M, 10 μM added in mid-G1, analysed 12 h post-release; for effect on cell cycle distribution (DNA content): asynchronous HeLa cells, 10 μM, 15 h
Description: Reactions were started by addition of the substrate OMFP (0.1 mM). Assays 69 were carried out at room temperature in duplicate or triplicate using transparent-bottom, 70 V-shaped 96 well plates and read at defined intervals on a Molecular Devices 71 SpectraMax microplate reader (ex: 490 nm / em: 525 nm). IC50 and kinetic parameters 72 calculated from Lineweaver-Burk double-reciprocal plots of the data were obtained using 73 GraphPad Prism software. 74 75 Cell culture - Wild-type HeLa and Kyoto HeLa cells stably expressing mCherry-H2B 76 were maintained in DMEM+L-Glutamine (Gibco, Life Technologies, USA) 77 supplemented with 5% fetal calf serum (FCS) (Gibco) and penicillin-streptomycin (100 […] A549 and Colo741 were grown and maintained like HeLa 79 cells but with 10% FCS. HCT116 were maintained in McCoy's medium supplemented 80 with 10% FCS and penicillin-streptomycin. U2OS-Tet-OFF cells expressing HA-CDC25 81 were grown and maintained in DMEM+L-Glutamine, 10% Tet-free FCS and penicillin- 82 streptomycin in the presence or the absence of 4 μg/ml tetracycline (Sigma, T7660). 83 84 Cell synchronization - Cell synchronization was performed by double thymidine block- 85 release protocol 2 or nocodazole treatment 3 and verified by flow cytometry. 86 87 Cell viability assays - Compounds viability upon 48h treatment with the compounds was 88 assessed as described 4. Data were plotted with Prism 7® and analyzed by non-linear 89 regression. Comparison of single curve fitting to all data set within an experiment was 90 performed with the extra sum-of-squares F-test to determine P values. 91 92 Western blotting - Cell lysis and immunoblot analysis were performed as previously 93 described 5. […] Cells were washed with PBS, resuspended […] To 100 quantify phosphorylation of CDK1 at Tyr15 and H2AX at S139, cells were harvested and 101 examined as described 6. Samples were measured on an AttuneTM NxT Cytometer 102 (ThermoFisher Scientific, Carlsbad, CA, USA) and data were analyzed with FlowJo® 103 software v10 (FlowJo, LLC, Ashland, OR, USA). 104 105 Real Time qRT-PCR - Organoids were lysed in Tri-Reagent (Sigma) as previously 106 described 7 and total RNA was isolated as described by manufacturer's instructions. For […] 108 High Fidelity cDNA Synthesis kit (Roche). Real-time quantitative PCR reactions were 109 performed in three independent biological replicates, each with technical triplicate, using 110 the Applied Biosystems SYBR Green Kit and monitored by the ABI Prism 7900HT 111 system (Applied Biosystem). The following primers were used: 112 Lgr5: Forward [NT] and Reverse 5'- […] 114 Lysozyme: Forward [NT] and Reverse 5'- 115 [NT]3' 116 Cryptdin: Forward [NT] and Reverse 5'- 117 [NT]-binding protein (TBP): Forward [NT] and 119 Reverse [NT] 120 […] 122 amplification curves and the melting temperature analysis of the final amplification […] 4

CDC25A = target: T1, CDC25A (Homo sapiens, UniProt P30304); assay: Enzymatic assay (OMFP substrate) on recombinant CDC25A; type: biochemical; settings: for remaining activity at 20 µM: read-out: % remaining activity ± SD (Table S2, second round of selection); for IC50: dose-response on recombinant CDC25A
T1 construct: GST (pGEX vector) (N); made in house; host or cells: E. coli BL21
T1 sequence (P30304 1-524): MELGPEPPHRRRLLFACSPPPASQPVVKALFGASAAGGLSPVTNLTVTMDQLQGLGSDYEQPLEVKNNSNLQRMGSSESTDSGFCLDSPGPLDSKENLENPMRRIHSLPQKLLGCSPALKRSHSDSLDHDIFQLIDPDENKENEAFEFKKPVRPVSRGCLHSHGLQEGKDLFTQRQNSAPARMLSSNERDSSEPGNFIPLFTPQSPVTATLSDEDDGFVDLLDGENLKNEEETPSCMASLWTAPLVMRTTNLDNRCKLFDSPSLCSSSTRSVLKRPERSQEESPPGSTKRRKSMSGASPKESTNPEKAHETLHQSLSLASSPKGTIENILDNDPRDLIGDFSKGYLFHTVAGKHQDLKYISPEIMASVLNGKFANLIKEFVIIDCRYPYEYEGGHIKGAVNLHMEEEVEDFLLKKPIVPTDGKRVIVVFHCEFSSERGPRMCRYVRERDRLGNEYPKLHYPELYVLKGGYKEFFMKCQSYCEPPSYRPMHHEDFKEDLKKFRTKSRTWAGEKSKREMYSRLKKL
Description: 57 UPD compounds were dissolved in DMSO at 10 mM stock concentration and stored in
60 Expression and purification of CDC25 phosphatases - CDC25A (kind gift of I.
61 Hoffmann, Heidelberg, Germany), CDC25B and CDC25C (kind gift of B. Gabrielli,
62 Queensland, Australia) in pGEX were expressed in E. coli BL21 cells and purified on 1
63 ml Glutathione Sepharose 4 Fast Flow columns as described 1.
65 Enzymatic assays - CDC25A, CDC25B and CDC25C were appropriately diluted in 10
66 mM Tris-HCl pH 8.0, 50 mM NaCl and assayed in 20 mM Tris-HCl pH 8.0, 75 mM
67 NaCl, 0.5 mM EGTA, 1 mM DTT, 0.1 mg/ml BSA and defined concentrations of
68 compounds. Reactions were started by addition of the substrate OMFP (0.1 mM). Assays
69 were carried out at room temperature in duplicate or triplicate using transparent-bottom,
70 V-shaped 96 well plates and read at defined intervals on a Molecular Devices
71 SpectraMax microplate reader (ex: 490 nm / em: 525 nm). IC50 and kinetic parameters
72 calculated from Lineweaver-Burk double-reciprocal plots of the data were obtained using
73 GraphPad Prism software. […]

HeLa cells [2] = assay: Cell viability assay on HeLa cells; type: cell-based; settings: Homo sapiens, 48h treatment
Description: 75 Cell culture - Wild-type HeLa and Kyoto HeLa cells stably expressing mCherry-H2B
76 were maintained in DMEM+L-Glutamine (Gibco, Life Technologies, USA)
77 supplemented with 5% fetal calf serum (FCS) (Gibco) and penicillin-streptomycin (100
78 U/ml - 100 µg/ml) (Gibco). […]
87 Cell viability assays - Compounds viability upon 48h treatment with the compounds was
88 assessed as described 4. Data were plotted with Prism 7® and analyzed by non-linear
89 regression. Comparison of single curve fitting to all data set within an experiment was
90 performed with the extra sum-of-squares F-test to determine P values. […]

HCT116 tumors = assay: HCT116 tumor xenograft in zebrafish embryos; type: in vivo; settings: 10 µM, 3 dpi
Description: Implantation of HCT116 cells into zebrafish embryos were carried out essentially as previously described. Briefly, HCT116 cells were cultured in McCoy’s medium supplemented with 10% FCS and penicillin/streptomycin until ~80% confluence, then labeled for 30 min at 37 °C in 6 μg/mL 1,1′-dioctadecyl-3,3,3′,3′-tetramethylindocarbocyanine perchlorate (DiI, Sigma) in PBS followed by washing 3x in PBS. Labeled cells were implanted in the perivitelline space of 48 hours post-fertilization (hpf) wildtype (AB) zebrafish embryos, kept from the 1-cell stage in 1-phenyl-2-thiourea (PTU)-containing E3-water. […] As control, embryos were incubated in PTU-E3 with 0.1% DMSO (vehicle). Tumor-bearing embryos were incubated at 36 °C for three days and the change in tumor volume was evaluated as the size of the tumors at three days post-implantation (3 dpi) relative to the size immediately after implantation (0 dpi). Metastasis was evaluated at 3 dpi as the number of tumor cells present in the caudal hematopoietic plexus, the main metastatic site for tumors implanted in the perivitelline space.

HeLa cells [3] = assay: Time-lapse microscopy of mitosis in synchronized HeLa cells; type: cell-based; settings: synchronized HeLa Kyoto cells (mCherry-H2B, GFP-α-tubulin), 5 μM
Description: Cells were grown in 35 mm CellView™ cell culture dishes with glass bottom (# 627870, Greiner-BioOne) at a density of 2.5 × 10^5 cells/ml in a humidified cell incubator maintained at 37 °C and 5% CO2. Cell were viewed by phase contrast microscopy with a 10x objective using an Olympus IX 81 motorized inverted microscope (Olympus, Hamburg, Germany) equipped with external temperature control chamber and CO2 bottle to maintain cells at 37 °C with 5% CO2. Transition through mitosis was documented by acquisition of four frames per hour over a period of 14 h using a CCD camera (Orca AG, Hamamatsu) and cellR® software (Olympus). HeLa-Kyoto cells (mCherry-H2B/EGFP-α-tubulin) were visualized by fluorescence microscopy with an Olympus IX 81 microscope using a 10x objective and selecting Ex. = 492 ± 18 nm/Em. = 535 ± 50 nm for the green channel and Ex. = 572 ± 23 nm/Em. = 645 ± 75 nm for the red channel.

[4] = compound 20 µM, relative to DMSO control

Row | SMILES | effect on cell cycle distribution (DNA content) (HeLa cells [1]) | remaining activity at 20 µM (CDC25A; [4]) | other results
1 | O=C1C=C(c2ccc(O)c(O)c2O)C(=O)c2ccccc21 [UPD-596, 2-(2,3,4-trihydroxyphenyl)-1,4-naphthoquinone] | increase of the G1 population | 0% | effect on the G1/S transition (HeLa cells [1]): ineffective
2 | O=C1C=C(c2ccc(O)cc2O)C(=O)c2ccccc21 [UPD-597, 2-(2,4-dihydroxyphenyl)-1,4-naphthoquinone] |  | 3.1 ± 0.3% | 
3 | O=C(O)c1ccc2c(c1)C(=O)c1c(O)ccc(O)c1C2=O [UPD-724, 1,4-dihydroxy-6-anthraquinonecarboxylic acid] |  | 98.9 ± 1.4% | 
4 | O=C1C=CC(=O)c2c(O)cccc21 [UPD-738, 5-hydroxynaphtho-1,4-quinone] | increase of the G1 population | 5.9 ± 0.1% | effect on the G1/S transition (HeLa cells [1]): effectively blocked cells in G1; IC50 (HeLa cells [2]): 4400 nM; metastasis (tumor cells in caudal hematopoietic plexus) (HCT116 tumors): did not appear to be significant
5 | O=C1C=C(c2ccc(O)c(O)c2O)C(=O)c2c(O)cccc21 [UPD-786, 8-hydroxy-2-(2,3,4 trihydroxyphenyl) naphthalene-1,4-dione] | increase of the G1 population | 0% | IC50 (HeLa cells [2]): 6500 nM; IC50 (CDC25A): 890 nM
6 | O=C1C=C(c2c(O)cc(O)cc2O)C(=O)c2c(O)cccc21 [UPD-788, 8-hydroxy-2-(2,4,6-trihydroxyphenyl)naphthalene-1,4-dione] |  | 70.1 ± 2% | 
7 | COc1ccc(C2=CC(=O)c3cccc(O)c3C2=O)c(OC)c1 [UPD-790, 8-hydroxy-2-(2,4-dimethoxyphenyl)naphthalene-1,4-dione] | accumulation of cells at G2/M | 5.6 ± 1.2% | execution of mitosis at low dose (time-lapse) (HeLa cells [3]): failed attempt to round up and execute mitosis, which was followed by membrane blebbing and death; effect on the G2/M transition (HeLa cells [1]; double-thymidine synchronized HeLa, 10 μM added 5 h upon release, analysed 12 h post-release): accretion of the G2/M peak; IC50 (HeLa cells [2]): 1410 nM
8 | Cc1ccc(SC2=CC(=O)c3cccc(O)c3C2=O)cc1 [UPD-793, 3-(p-tolylthio)juglone] | increase of the G1 population |  | effect on the G1/S transition (HeLa cells [1]): effectively blocked cells in G1; % remaining activity ± SD (Table S2, second round of selection) (CDC25A; [4]): 1.0 ± 0.1%; IC50 (CDC25A): 920 nM
9 | O=C1C=C(N2CCCCC2)C(=O)c2c(O)cccc21 [UPD-797, 8-hydroxy-2-(piperidin-1-yl)naphthalene-1,4-dione] |  | 8.5 ± 0.1% | 
10 | O=C1C=C(N2CCOCC2)C(=O)c2c(O)cccc21 [UPD-798, N-(5-hydroxy-1,4-naphthoquinon-3-yl)morpholine] |  | 41.4 ± 0.4% | 
11 | Nc1ccc(N)c2c1C(=O)C=CC2=O [UPD-1382, 5,8-diaminonaphthalene-1,4-dione] |  | 94.4 ± 0.6% | 
12 | Cc1cc(O)c2c(n1)C(=O)C=CC2=O [UPD-1416, 4-Hydroxy-2-methylquinoline-5,8-dione] |  | 4.1% | 
13 | Cc1ccc2c(n1)C(=O)C=CC2=O [UPD-1419, 2-methyl-5,8-dihydro-5,8-dioxoquinoline] |  | 1.9 ± 0.3% | 
